PubChem BioAssay (NCI)
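GI50 = concentration required for 50% inhibition of growth. TGI marks complete inhibition of growth.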

Assays:
Assay in all cases: NCI anticancer screen, dose series, 384-well format
A498 renal = tested on: A498 renal
ACHN renal = tested on: ACHN renal
BT-549 breast = tested on: BT-549 breast
CCRF-CEM leukemia = tested on: CCRF-CEM leukemia
COLO 205 colon = tested on: COLO 205 colon
DU-145 prostate = tested on: DU-145 prostate
HCC-2998 colon = tested on: HCC-2998 colon
HCT-116 colon = tested on: HCT-116 colon
HL-60(TB) leukemia = tested on: HL-60(TB) leukemia
HOP-62 NSCLC = tested on: HOP-62 NSCLC
HS 578T breast = tested on: HS 578T breast
HT29 colon = tested on: HT29 colon
IGROV1 ovarian = tested on: IGROV1 ovarian
K-562 leukemia = tested on: K-562 leukemia
KM12 colon = tested on: KM12 colon
LOX IMVI melanoma = tested on: LOX IMVI melanoma
M14 melanoma = tested on: M14 melanoma
MALME-3M melanoma = tested on: MALME-3M melanoma
MCF7 breast = tested on: MCF7 breast
MDA-MB-231 breast = tested on: MDA-MB-231 breast
MDA-MB-435 melanoma = tested on: MDA-MB-435 melanoma
MOLT-4 leukemia = tested on: MOLT-4 leukemia
NCI-H226 lung = tested on: NCI-H226 lung
NCI-H23 lung = tested on: NCI-H23 lung
NCI-H322M lung = tested on: NCI-H322M lung
NCI-H460 NSCLC = tested on: NCI-H460 NSCLC
NCI-H522 lung = tested on: NCI-H522 lung
NCI/ADR-RES ovarian = tested on: NCI/ADR-RES ovarian
OVCAR-4 ovarian = tested on: OVCAR-4 ovarian
OVCAR-5 ovarian = tested on: OVCAR-5 ovarian
OVCAR-8 ovarian = tested on: OVCAR-8 ovarian
PC-3 prostate = tested on: PC-3 prostate
RPMI-8226 leukemia = tested on: RPMI-8226 leukemia
RXF 393 renal = tested on: RXF 393 renal
SF-268 CNS = tested on: SF-268 CNS
SF-539 CNS = tested on: SF-539 CNS
SK-MEL-28 melanoma = tested on: SK-MEL-28 melanoma
SK-MEL-5 melanoma = tested on: SK-MEL-5 melanoma
SNB-19 CNS = tested on: SNB-19 CNS
SNB-75 CNS = tested on: SNB-75 CNS
SR leukemia = tested on: SR leukemia
T-47D breast = tested on: T-47D breast
TK-10 renal = tested on: TK-10 renal
U251 glioblastoma = tested on: U251 glioblastoma
UACC-257 melanoma = tested on: UACC-257 melanoma
UACC-62 melanoma = tested on: UACC-62 melanoma
UO-31 renal = tested on: UO-31 renal

## CNCc1ccc(-c2[nH]c3cc(F)cc4c3c2CCNC4=O)cc1
A498 renal
  GI50: 15.7 µM
  TGI: 29.3 µM
ACHN renal
  GI50: 11.5 µM
  TGI: 28.6 µM
BT-549 breast
  GI50: 11.8 µM
  TGI: 24.2 µM
CCRF-CEM leukemia
  GI50: 3.68 µM
  TGI: 13.1 µM
COLO 205 colon
  GI50: 9.97 µM
  TGI: 23.1 µM
DU-145 prostate
  GI50: 13.9 µM
  TGI: 27.4 µM
HCC-2998 colon
  GI50: 11.3 µM
  TGI: 23.8 µM
HCT-116 colon
  GI50: 6.6 µM
  TGI: 19.4 µM
HL-60(TB) leukemia
  GI50: 8.28 µM
  TGI: 19.1 µM
HOP-62 NSCLC
  GI50: 9.39 µM
  TGI: 23.4 µM
HS 578T breast
  GI50: 10.4 µM
  TGI: 22.4 µM
HT29 colon
  GI50: 10 µM
  TGI: 23.4 µM
IGROV1 ovarian
  GI50: 10.4 µM
  TGI: 25.4 µM
K-562 leukemia
  GI50: 7.92 µM
  TGI: 20.1 µM
KM12 colon
  GI50: 15.7 µM
  TGI: 30.2 µM
LOX IMVI melanoma
  GI50: 13 µM
  TGI: 26 µM
M14 melanoma
  GI50: 14.7 µM
  TGI: 28 µM
MALME-3M melanoma
  GI50: 16.9 µM
  TGI: 30.7 µM
MCF7 breast
  GI50: 6.36 µM
  TGI: 18.7 µM
MDA-MB-231 breast
  GI50: 8.58 µM
  TGI: 21.8 µM
MDA-MB-435 melanoma
  GI50: 19 µM
  TGI: 34.2 µM
MOLT-4 leukemia
  GI50: 2.17 µM
  TGI: 5.64 µM
NCI-H226 lung
  GI50: 7.9 µM
  TGI: 21.9 µM
NCI-H23 lung
  GI50: 12.1 µM
  TGI: 24.8 µM
NCI-H322M lung
  GI50: 17.2 µM
  TGI: 32.4 µM
NCI-H460 NSCLC
  GI50: 6.31 µM
  TGI: 19.6 µM
NCI-H522 lung
  GI50: 15.6 µM
  TGI: 29.3 µM
NCI/ADR-RES ovarian
  GI50: 38.7 µM
  TGI: > 92.6 µM
OVCAR-4 ovarian
  GI50: 21 µM
  TGI: 38.2 µM
OVCAR-5 ovarian
  GI50: 15.8 µM
  TGI: 38.9 µM
OVCAR-8 ovarian
  GI50: 10.4 µM
  TGI: 23.7 µM
PC-3 prostate
  GI50: 16.1 µM
  TGI: 38 µM
RPMI-8226 leukemia
  GI50: 8.37 µM
  TGI: 21.6 µM
RXF 393 renal
  GI50: 10.6 µM
  TGI: 23.8 µM
SF-268 CNS
  GI50: 14.1 µM
  TGI: 29.1 µM
SF-539 CNS
  GI50: 12.4 µM
  TGI: 25.1 µM
SK-MEL-28 melanoma
  GI50: 15.2 µM
  TGI: 28.8 µM
SK-MEL-5 melanoma
  GI50: 6.05 µM
  TGI: 12.1 µM
SNB-19 CNS
  GI50: 19 µM
  TGI: > 48.4 µM
SNB-75 CNS
  GI50: 13.2 µM
  TGI: 26.4 µM
SR leukemia
  GI50: 1.54 µM
  TGI: 3.93 µM
T-47D breast
  GI50: 16.9 µM
  TGI: 36.9 µM
TK-10 renal
  GI50: 18.8 µM
  TGI: 46.5 µM
U251 glioblastoma
  GI50: 14.4 µM
  TGI: 32.5 µM
UACC-257 melanoma
  GI50: 12.8 µM
  TGI: 26.4 µM
UACC-62 melanoma
  GI50: 12.4 µM
  TGI: 25 µM
UO-31 renal
  GI50: 12.1 µM
  TGI: 28.5 µM

## N#CCC1(n2cc(-c3ncnc4[nH]ccc34)cn2)CN(C2CCN(C(=O)c3ccnc(C(F)(F)F)c3F)CC2)C1
A498 renal
  GI50: > 100 µM
  TGI: > 100 µM
ACHN renal
  GI50: > 64.7 µM
  TGI: > 100 µM
BT-549 breast
  GI50: 50.4 µM
  TGI: > 100 µM
CCRF-CEM leukemia
  GI50: 20.6 µM
  TGI: 44.9 µM
COLO 205 colon
  GI50: 28.5 µM
  TGI: 70.6 µM
DU-145 prostate
  GI50: 97.1 µM
  TGI: > 100 µM
HCC-2998 colon
  GI50: > 100 µM
  TGI: > 100 µM
HCT-116 colon
  GI50: > 79.5 µM
  TGI: > 100 µM
HL-60(TB) leukemia
  GI50: > 62 µM
  TGI: 97.7 µM
HOP-62 NSCLC
  GI50: > 68.2 µM
  TGI: > 100 µM
HS 578T breast
  GI50: 30.9 µM
  TGI: 92.9 µM
HT29 colon
  GI50: > 73 µM
  TGI: > 100 µM
IGROV1 ovarian
  GI50: > 76 µM
  TGI: > 100 µM
K-562 leukemia
  GI50: 34.5 µM
  TGI: > 100 µM
KM12 colon
  GI50: 42.3 µM
  TGI: > 100 µM
LOX IMVI melanoma
  GI50: > 100 µM
  TGI: > 100 µM
M14 melanoma
  GI50: > 88.6 µM
  TGI: > 100 µM
MALME-3M melanoma
  GI50: > 75.4 µM
  TGI: > 100 µM
MCF7 breast
  GI50: > 71.8 µM
  TGI: > 100 µM
MDA-MB-231 breast
  GI50: 45.8 µM
  TGI: > 100 µM
MDA-MB-435 melanoma
  GI50: > 100 µM
  TGI: > 100 µM
MOLT-4 leukemia
  GI50: 16.8 µM
  TGI: 35.4 µM
NCI-H226 lung
  GI50: 33.5 µM
  TGI: > 82.9 µM
NCI-H23 lung
  GI50: 31.7 µM
  TGI: > 100 µM
NCI-H322M lung
  GI50: > 100 µM
  TGI: > 100 µM
NCI-H460 NSCLC
  GI50: 49.6 µM
  TGI: > 100 µM
NCI-H522 lung
  GI50: 18.4 µM
  TGI: 39.2 µM
NCI/ADR-RES ovarian
  GI50: > 100 µM
  TGI: > 100 µM
OVCAR-4 ovarian
  GI50: > 100 µM
  TGI: > 100 µM
OVCAR-5 ovarian
  GI50: > 100 µM
  TGI: > 100 µM
OVCAR-8 ovarian
  GI50: > 100 µM
  TGI: > 100 µM
PC-3 prostate
  GI50: > 100 µM
  TGI: > 100 µM
RPMI-8226 leukemia
  GI50: 22.2 µM
  TGI: 65.7 µM
RXF 393 renal
  GI50: 58.3 µM
  TGI: > 100 µM
SF-268 CNS
  GI50: > 39.8 µM
  TGI: > 69.3 µM
SF-539 CNS
  GI50: > 76.2 µM
  TGI: > 100 µM
SK-MEL-28 melanoma
  GI50: > 100 µM
  TGI: > 100 µM
SK-MEL-5 melanoma
  GI50: > 41.9 µM
  TGI: > 70.7 µM
SNB-19 CNS
  GI50: > 100 µM
  TGI: > 100 µM
SNB-75 CNS
  GI50: > 58 µM
  TGI: > 100 µM
SR leukemia
  GI50: 23.9 µM
  TGI: 39.4 µM
T-47D breast
  GI50: 49.6 µM
  TGI: > 100 µM
TK-10 renal
  GI50: > 100 µM
  TGI: > 100 µM
U251 glioblastoma
  GI50: > 100 µM
  TGI: > 100 µM
UACC-257 melanoma
  GI50: > 81.8 µM
  TGI: > 100 µM
UACC-62 melanoma
  GI50: > 61.3 µM
  TGI: > 100 µM
UO-31 renal
  GI50: 72.5 µM
  TGI: > 100 µM
